# According to US6677310B1, “Ring-expanded nucleosides and nucleotides” (Nabi, priority 1999, dated 2004):
# Legend:
# Format in all cases: cell-based, human
# OVCAR-5 = test: SRB anti-cancer assay, Ovarian Cancer; settings: OVCAR-5 (Ovarian Cancer), 48 h
# SR = test: SRB anti-cancer assay, Leukemia; settings: 48 h
# DU-145 = test: SRB anti-cancer assay, Prostate Cancer; settings: DU-145 (Prostate Cancer), 48 h
# SW-620 = test: SRB anti-cancer assay, Colon Cancer; settings: SW-620 (Colon Cancer), 48 h
# UACC-62 = test: SRB anti-cancer assay, Melanoma; settings: UACC-62 (Melanoma), 48 h
# OVCAR-3 = test: SRB anti-cancer assay, Ovarian Cancer; settings: OVCAR-3 (Ovarian Cancer), 48 h
# OVCAR-8 = test: SRB anti-cancer assay, Ovarian Cancer; settings: OVCAR-8 (Ovarian Cancer), 48 h
# SK-OV-3 = test: SRB anti-cancer assay, Ovarian Cancer; settings: SK-OV-3 (Ovarian Cancer), 48 h
# SK-MEL-28 = test: SRB anti-cancer assay, Melanoma; settings: SK-MEL-28 (Melanoma), 48 h
# EKVX = EKVX (Non-Small Cell Lung Cancer), 48 h
# SF-268 = test: SRB anti-cancer assay, CNS Cancer; settings: SF-268 (CNS Cancer), 48 h
# T-47D = test: SRB anti-cancer assay, Breast Cancer; settings: T-47D (Breast Cancer), 48 h
# HOP-62 = HOP-62 (Non-Small Cell Lung Cancer), 48 h
# MDA-MB- 231/ATCC = test: SRB anti-cancer assay, Breast Cancer; settings: MDA-MB- 231/ATCC (Breast Cancer), 48 h
# HCT-15 = test: SRB anti-cancer assay, Colon Cancer; settings: HCT-15 (Colon Cancer), 48 h
# ACHN = test: SRB anti-cancer assay, Renal Cancer; settings: 48 h
# CAKI-1 = test: SRB anti-cancer assay, Renal Cancer; settings: CAKI-1 (Renal Cancer), 48 h
# 786-0 = test: SRB anti-cancer assay, Renal Cancer; settings: 786-0 (Renal Cancer), 48 h
# M14 = test: SRB anti-cancer assay, Melanoma; settings: 48 h
# RPMI-8226 = test: SRB anti-cancer assay, Leukemia; settings: RPMI-8226 (Leukemia), 48 h
# SNB-19 = test: SRB anti-cancer assay, CNS Cancer; settings: SNB-19 (CNS Cancer), 48 h
# A549/ATCC = A549/ATCC (Non-Small Cell Lung Cancer), 48 h
# CCRF-CEM = test: SRB anti-cancer assay, Leukemia; settings: 48 h
# NCI/ADR-RES = test: SRB anti-cancer assay, Breast Cancer; settings: 48 h
# NCI-H23 = NCI-H23 (Non-Small Cell Lung Cancer), 48 h
# HCT-116 = test: SRB anti-cancer assay, Colon Cancer; settings: HCT-116 (Colon Cancer), 48 h
# SNB-75 = test: SRB anti-cancer assay, CNS Cancer; settings: SNB-75 (CNS Cancer), 48 h
# NCI-H226 = NCI-H226 (Non-Small Cell Lung Cancer), 48 h
# NCI-H460 = NCI-H460 (Non-Small Cell Lung Cancer), 48 h
# [1] = read-out: LC50 (the source's name)
structure (smiles),measurement,setting,value
"N=c1nc(N)c2ncn([C@@H]3O[C@H](CO)[C@@H](O)[C@H]3O)c2c(N)n1 [Compound 14-2, 4,8-Diamino-6H-6-imino-1-β-D-ribofuranosylimidazo[4,5-e][1,3]diazepine]",GI50,OVCAR-5,16.8 µM
same,TGI,OVCAR-5,32.7 µM
same,CC50,OVCAR-5; [1],64 µM
same,GI50,SR,> 100 µM
same,LC50 (concentration killing 50% of cells),SR,> 100 µM
same,TGI,SR,>100 µM
same,GI50,DU-145,15 µM
same,TGI,DU-145,30.2 µM
same,CC50,DU-145; [1],60.7 µM
same,GI50,SW-620,17.2 µM
same,TGI,SW-620,>100 µM
same,CC50,SW-620; [1],> 100 µM
same,GI50,UACC-62,2.88 µM
same,TGI,UACC-62,16.2 µM
same,CC50,UACC-62; [1],56.3 µM
same,GI50,OVCAR-3,3.53 µM
same,TGI,OVCAR-3,13.2 µM
same,CC50,OVCAR-3; [1],42.3 µM
same,GI50,OVCAR-8,13.2 µM
same,LC50 (50% lethal concentration),OVCAR-8,75.3 µM
same,TGI,OVCAR-8,31.5 µM
same,GI50,SK-OV-3,51.8 µM
same,TGI,SK-OV-3,>100 µM
same,CC50,SK-OV-3; [1],> 100 µM
same,GI50,SK-MEL-28,25.4 µM
same,LC50,SK-MEL-28,> 100 µM
same,TGI,SK-MEL-28,81.1 µM
same,GI50,EKVX,14.3 µM
same,TGI,EKVX,27.3 µM
same,CC50,EKVX; [1],52.3 µM
same,GI50,SF-268,15.7 µM
same,TGI,SF-268,34.8 µM
same,CC50,SF-268; [1],77.2 µM
same,GI50,T-47D,13.3 µM
same,TGI,T-47D,39.6 µM
same,CC50,T-47D; [1],> 100 µM
same,GI50,HOP-62,28.5 µM
same,LC50 (concentration for 50% net cell kill),HOP-62,> 100 µM
same,TGI,HOP-62,>100 µM
same,GI50,MDA-MB- 231/ATCC,23.8 µM
same,TGI,MDA-MB- 231/ATCC,52.8 µM
same,CC50,MDA-MB- 231/ATCC; [1],> 100 µM
same,GI50,HCT-15,11.8 µM
same,TGI,HCT-15,27.4 µM
same,CC50,HCT-15; [1],63.5 µM
same,GI50,ACHN,12.3 µM
same,TGI,ACHN,27.2 µM
same,CC50,ACHN; [1],59.9 µM
same,GI50,CAKI-1,20.3 µM
same,TGI,CAKI-1,71 µM
same,CC50,CAKI-1; [1],> 100 µM
same,GI50,786-0,15.7 µM
same,TGI,786-0,47 µM
same,GI50,M14,11.5 µM
same,TGI,M14,24.3 µM
same,CC50,M14; [1],51.1 µM
same,GI50,RPMI-8226,32.8 µM
same,TGI,RPMI-8226,>100 µM
same,CC50,RPMI-8226; [1],> 100 µM
same,GI50,SNB-19,17.1 µM
same,TGI,SNB-19,51.5 µM
same,CC50,SNB-19; [1],> 100 µM
same,GI50,A549/ATCC,22.3 µM
same,TGI,A549/ATCC,58.4 µM
same,CC50,A549/ATCC; [1],> 100 µM
same,GI50,CCRF-CEM,59 µM
same,TGI,CCRF-CEM,>100 µM
same,CC50,CCRF-CEM; [1],> 100 µM
same,GI50,NCI/ADR-RES,23.4 µM
same,TGI,NCI/ADR-RES,67.6 µM
same,CC50,NCI/ADR-RES; [1],> 100 µM
same,GI50,NCI-H23,16.8 µM
same,TGI,NCI-H23,33.4 µM
same,CC50,NCI-H23; [1],66.2 µM
same,GI50,HCT-116,13.3 µM
same,TGI,HCT-116,26.8 µM
same,CC50,HCT-116; [1],54.2 µM
same,GI50,SNB-75,27.9 µM
same,LC50 (concentration killing 50% of cells),SNB-75,> 100 µM
same,TGI,SNB-75,99.1 µM
same,GI50,NCI-H226,33.2 µM
same,TGI,NCI-H226,>100 µM
same,CC50,NCI-H226; [1],> 100 µM
same,GI50,NCI-H460,15.4 µM
same,TGI,NCI-H460,31.4 µM
same,CC50,NCI-H460; [1],64.1 µM
